Test results reported in patent publication US9822117B2, “Pyridoindolobenz[b,d]azepine derivatives and uses thereof” (Daya Drug Discoveries, Inc., priority 2013, dated 2017).

Key:
[1] = target: Sigma σ2 receptor (Homo sapiens, UniProt Q5BJF2); test: Receptor binding, σ2
[2] = system: mechano-allodynia (paw withdrawal threshold); test: Sciatic nerve chronic constriction injury (CCI) model of neuropathic pain; type: in vivo, mice
Method: DDD-028 was evaluated in chronic constriction injury (CCI) model of neuropathic pain in mice as described by Bennett et al., which is incorporated herein in its entirety. Two male CDI mice (weighing 25-30 g at the time of surgery) were used in this study. The hydrochloride salt of DDD-028 was dissolved in distilled water at 0.15 mg/mL and was administered to the mice to the final dose of 1.0 mg/kg (3.5 gmol/kg) for oral administration (via gavage) or 0.3 mg/kg (1.2 gmol/kg) for intrathecal administration (injection) at peak mechano-allodynia. Baseline PWT measurements (pre-surgery) of the left-hind paw of each animal were taken prior to sciatic nerve ligation. The mice were then anesthetized with 3% isoflurane/100% O2 inhalation, and maintained on 2% isoflurane/100% O2 for the duration of surgery. The left thigh was shaved, scrubbed with Nolvasan, and a small incision (1-1.5 cm in length) was made in the middle of the lateral aspect of the left thigh to expose the sciatic nerve. The nerve was loosely ligated around the entire circumference of the nerve at three distinct sites (spaced 1 mm apart) using silk sutures. The surgical site was closed with a single muscle suture and a skin clip. Peak mechano-allodynia generally develops 7 […]. After 7 days post-surgery, Paw Withdrawal Threshold (PWT, g) measurements were taken for each animal to determine the extent of mechanical allodynia. PWT's were measured at 15 min, 30 min, 60 min, 120 min, and 180 min following administration of the drugs or vehicle. […] DDD-028 had no effect on PWT in contralateral paws.

[3] = system: mechanical allodynia (paw withdrawal threshold); test: Spinal nerve ligation (SNL) model of neuropathic pain; type: in vivo, rats
Method: DDD-028 was evaluated in spinal nerve ligation (SNL) model of neuropathic pain in rats as described by Kim et al., which is incorporated herein in its entirety. DDD-028 was prepared as a suspension (1.0 mg/mL) in 5% PEG/5% Tween-80/90% saline; and pregabalin (reference compound, positive control) was prepared as a solution in normal saline (7.9 mg/mL). Both compounds were administered to the animals via oral gavage to a final dose of 5.0 mg/kg (17.4 gmol/kg) for DDD-028; and 39.0 mg/kg (250.2 gmol/kg) for pregabalin. Control animals received the vehicle (5% PEG/5% Tween-80/90% saline). Mechanical allodynia was measured by the up and down method using calibrated von Frey filaments (Linton Instruments). Eighteen male CD rats were used in this study. The animals were divided into three groups (vehicle, DDD-028, and pregabalin) containing 6 animals in each group. Baseline PWT measurements (pre-surgery) of the left-hind paw of each animal in the group were taken prior to spinal nerve ligation. Thereafter, the rats were anesthetized using 1-3% isofluorane, and the L5 spinal nerve was isolated and ligated tightly using silk thread. Peak mechano-allodynia generally develops by day 7 following surgery. After 7 days post-surgery, PWT measurements were taken for each animal to determine the extent of mechanical allodynia. Animals were then weighed, allocated to the treatment group, and administered the test compound, DDD-028, the reference compound, pregabalin, or the vehicle. PWT's were measured at 15 min, 30 min, 60 min, 120 min, and 180 min following administration of the drugs or vehicle.

[4] = system: mechanical allodynia (percent weight distribution of left hind paw); test: Complete Freund's Adjuvant (CFA)-induced model of inflammatory pain; type: in vivo; details: rats
Method: DDD-028 was evaluated in Complete Freund's Adjuvant (CFA)-induced model of inflammatory pain in rats as described by Stein et al., which is incorporated herein in its entirety. Fifteen male CD rats were used in this study. The animals were divided into three groups (vehicle, DDD-028, and indomethacin) containing 5 animals in each group. Baseline weight distribution of each animal in the groups was measured taken prior to CFA administration. Three readings were taken for each paw in each animal. Each reading was take over 3 seconds. Animals were lifted or the paws adjusted between each reading to ensure that animals were positioned correctly on the force pads. The percent weight bearing was calculated on the left leg for each reading. The mean of the three readings were then calculated for each animal. Following baseline measurements, the rats were anesthetized using 1-3% isofluorane, and were given subplantar injection of 0.1 mL of CFA into the left hind paw. Percent weight distributions of the left hind paws of each animal in the three groups were measured at 24 hours post-administration to determine the extent of mechanical allodynia. Animals were then weighed, allocated to the treatment group, and administered the test compound, DDD-028, the reference compound, indomethacin, or the vehicle. Weight distributions were measured at 15 min, 30 min, 60 min, and 120 min following administration of the drugs or vehicle.

Sequence of Sigma σ2 receptor (Q5BJF2 whole entry): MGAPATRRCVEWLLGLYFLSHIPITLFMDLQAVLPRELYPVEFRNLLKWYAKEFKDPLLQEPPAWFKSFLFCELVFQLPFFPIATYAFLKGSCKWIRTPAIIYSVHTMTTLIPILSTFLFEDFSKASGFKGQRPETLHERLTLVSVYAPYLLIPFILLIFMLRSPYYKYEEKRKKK

SMILES: CN1CCc2c(c3cccc4c3n2CCc2ccccc2-4)C1 [Compound 13]
- Ki [1]: 312 nM
- effect on PWT in contralateral paws ([2]; mice, CCI, 1.0 mg/kg oral or 0.3 mg/kg intrathecal): no effect
- time of maximal effect on mechano-allodynia ([2]; mice, CCI, hydrochloride salt, 1.0 mg/kg oral or 0.3 mg/kg intrathecal): ≤ 30 min
- adverse effects ([3]; rat, in vivo, po, 5 mg/kg): No adverse effects were evident
- time of maximal anti-nociceptive effect ([3]; rats, SNL, 5.0 mg/kg oral): about 60 minutes
- potency relative to pregabalin ([3]; rats, SNL, DDD-028 5.0 mg/kg vs pregabalin […], oral): about 5 fold
- adverse effects ([4]; oral): No adverse effects were evident
- potency relative to indomethacin ([4]; oral): about 5 fold
- time of maximal anti-nociceptive effect ([4]; oral): about 60 minutes

SMILES: COc1ccc2c(c1)c(CC(=O)O)c(C)n2C(=O)c1ccc(Cl)cc1 [indomethacin, reference compound]
- adverse effects ([4]; 2 hours post-administration): mild sedation

SMILES: CC(C)C[C@H](CN)CC(=O)O [pregabalin, reference compound]
- adverse effects ([2]; as printed in Example 5 (CCI), 1-3 hours post-administration): mild sedation
